{"source": "ChEMBL document CHEMBL5465560", "about": "“Selectivity Literature for EUbOPEN Chemogenomic Library” (2024)", "key": {"[1]": {"target": "Melatonin receptor type 1A (Homo sapiens) (UniProt P48039)", "sequence (P48039 whole entry)": "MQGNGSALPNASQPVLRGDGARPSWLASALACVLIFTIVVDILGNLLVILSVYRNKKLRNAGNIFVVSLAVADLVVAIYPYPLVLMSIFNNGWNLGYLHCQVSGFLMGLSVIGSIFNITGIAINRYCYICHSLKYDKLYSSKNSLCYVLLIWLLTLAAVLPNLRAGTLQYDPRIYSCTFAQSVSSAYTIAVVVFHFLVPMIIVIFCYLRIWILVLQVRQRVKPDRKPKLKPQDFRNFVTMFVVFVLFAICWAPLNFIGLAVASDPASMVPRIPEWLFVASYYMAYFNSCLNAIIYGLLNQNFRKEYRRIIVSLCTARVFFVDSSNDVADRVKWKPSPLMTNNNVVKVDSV", "assay": "Selectivity interaction (Eurofins CEREP Diversity Profile (receptors and ion channels)) EUB0000279b MTNR1A", "details": "at 10 µM"}, "[2]": {"target": "ATP-sensitive inward rectifier potassium channel 11 (Homo sapiens) (UniProt Q14654)", "sequence (Q14654 whole entry)": "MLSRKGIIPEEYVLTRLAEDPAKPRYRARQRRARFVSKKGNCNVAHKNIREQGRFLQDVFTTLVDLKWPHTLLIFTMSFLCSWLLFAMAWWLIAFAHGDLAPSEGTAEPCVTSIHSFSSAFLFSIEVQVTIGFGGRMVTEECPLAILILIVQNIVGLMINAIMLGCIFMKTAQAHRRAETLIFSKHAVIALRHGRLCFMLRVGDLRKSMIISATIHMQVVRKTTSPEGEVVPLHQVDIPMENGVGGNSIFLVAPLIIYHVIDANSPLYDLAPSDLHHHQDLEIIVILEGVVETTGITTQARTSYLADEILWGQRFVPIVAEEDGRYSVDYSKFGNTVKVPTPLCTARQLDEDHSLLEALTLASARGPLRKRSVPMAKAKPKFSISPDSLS", "assay": "Selectivity interaction (Eurofins CEREP Diversity Profile (receptors and ion channels)) EUB0000279b KCNJ11", "details": "at 10 µM"}, "[3]": {"target": "Casein kinase I isoform gamma-1 (Homo sapiens) (UniProt Q9HCP0)", "sequence (Q9HCP0 whole entry, looked up, canonical isoform)": "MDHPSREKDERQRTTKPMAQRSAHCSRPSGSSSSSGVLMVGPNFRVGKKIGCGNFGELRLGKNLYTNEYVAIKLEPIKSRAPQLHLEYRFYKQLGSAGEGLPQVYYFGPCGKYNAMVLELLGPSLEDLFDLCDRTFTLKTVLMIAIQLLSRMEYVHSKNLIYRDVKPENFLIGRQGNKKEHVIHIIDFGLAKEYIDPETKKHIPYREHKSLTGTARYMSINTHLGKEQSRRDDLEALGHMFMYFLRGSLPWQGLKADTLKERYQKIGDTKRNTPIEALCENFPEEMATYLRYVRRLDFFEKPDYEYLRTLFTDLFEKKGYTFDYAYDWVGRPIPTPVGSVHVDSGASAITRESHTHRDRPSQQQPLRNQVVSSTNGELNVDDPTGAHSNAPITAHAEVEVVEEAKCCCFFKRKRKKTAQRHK", "assay": "Selectivity interaction (KinomeScan (DiscoverX)) EUB0000666a CSNK1G1", "details": "at 10 µM"}, "[4]": {"target": "T1, Phosphatidylinositol 5-phosphate 4-kinase type-2 beta (Homo sapiens) (UniProt P78356)", "T1 sequence (whole entry)": "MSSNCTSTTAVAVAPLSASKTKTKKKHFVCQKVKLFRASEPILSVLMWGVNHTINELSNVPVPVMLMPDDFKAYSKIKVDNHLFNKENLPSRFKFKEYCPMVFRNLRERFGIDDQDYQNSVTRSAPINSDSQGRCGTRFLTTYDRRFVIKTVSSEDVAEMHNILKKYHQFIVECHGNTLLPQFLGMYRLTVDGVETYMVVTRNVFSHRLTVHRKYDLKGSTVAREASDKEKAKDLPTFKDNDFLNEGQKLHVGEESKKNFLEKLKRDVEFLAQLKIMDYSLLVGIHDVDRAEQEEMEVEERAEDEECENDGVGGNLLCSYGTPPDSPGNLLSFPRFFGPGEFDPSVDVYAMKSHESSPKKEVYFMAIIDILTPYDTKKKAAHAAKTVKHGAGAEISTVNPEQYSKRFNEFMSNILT", "details": "at 10 µM"}, "[5]": {"target": "Serine/threonine-protein kinase PLK3 (Homo sapiens, UniProt Q9H4B4)", "sequence (Q9H4B4 whole entry, looked up)": "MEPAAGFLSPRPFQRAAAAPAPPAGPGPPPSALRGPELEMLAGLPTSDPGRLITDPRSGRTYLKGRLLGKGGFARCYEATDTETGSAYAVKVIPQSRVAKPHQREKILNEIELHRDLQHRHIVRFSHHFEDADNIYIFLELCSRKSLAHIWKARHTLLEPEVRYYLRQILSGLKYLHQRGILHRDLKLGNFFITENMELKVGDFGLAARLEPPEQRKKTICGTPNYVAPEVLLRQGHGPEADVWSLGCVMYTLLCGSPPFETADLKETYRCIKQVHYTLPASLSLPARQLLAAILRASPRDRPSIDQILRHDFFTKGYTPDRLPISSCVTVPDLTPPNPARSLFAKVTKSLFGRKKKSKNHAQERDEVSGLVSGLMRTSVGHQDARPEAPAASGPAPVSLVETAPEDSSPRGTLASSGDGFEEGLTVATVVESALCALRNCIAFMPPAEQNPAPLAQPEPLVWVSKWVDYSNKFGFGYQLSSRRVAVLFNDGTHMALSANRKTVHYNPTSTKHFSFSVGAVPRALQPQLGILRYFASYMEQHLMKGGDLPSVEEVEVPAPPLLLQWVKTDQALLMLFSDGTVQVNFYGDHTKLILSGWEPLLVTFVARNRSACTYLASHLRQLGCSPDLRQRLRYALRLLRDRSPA", "assay": "Selectivity interaction (KinomeScan (DiscoverX)) EUB0000655a PLK3", "details": "at 10 µM"}, "[6]": {"target": "Serine/threonine-protein kinase PRP4 homolog (Homo sapiens) (UniProt Q13523)", "sequence (Q13523 whole entry)": "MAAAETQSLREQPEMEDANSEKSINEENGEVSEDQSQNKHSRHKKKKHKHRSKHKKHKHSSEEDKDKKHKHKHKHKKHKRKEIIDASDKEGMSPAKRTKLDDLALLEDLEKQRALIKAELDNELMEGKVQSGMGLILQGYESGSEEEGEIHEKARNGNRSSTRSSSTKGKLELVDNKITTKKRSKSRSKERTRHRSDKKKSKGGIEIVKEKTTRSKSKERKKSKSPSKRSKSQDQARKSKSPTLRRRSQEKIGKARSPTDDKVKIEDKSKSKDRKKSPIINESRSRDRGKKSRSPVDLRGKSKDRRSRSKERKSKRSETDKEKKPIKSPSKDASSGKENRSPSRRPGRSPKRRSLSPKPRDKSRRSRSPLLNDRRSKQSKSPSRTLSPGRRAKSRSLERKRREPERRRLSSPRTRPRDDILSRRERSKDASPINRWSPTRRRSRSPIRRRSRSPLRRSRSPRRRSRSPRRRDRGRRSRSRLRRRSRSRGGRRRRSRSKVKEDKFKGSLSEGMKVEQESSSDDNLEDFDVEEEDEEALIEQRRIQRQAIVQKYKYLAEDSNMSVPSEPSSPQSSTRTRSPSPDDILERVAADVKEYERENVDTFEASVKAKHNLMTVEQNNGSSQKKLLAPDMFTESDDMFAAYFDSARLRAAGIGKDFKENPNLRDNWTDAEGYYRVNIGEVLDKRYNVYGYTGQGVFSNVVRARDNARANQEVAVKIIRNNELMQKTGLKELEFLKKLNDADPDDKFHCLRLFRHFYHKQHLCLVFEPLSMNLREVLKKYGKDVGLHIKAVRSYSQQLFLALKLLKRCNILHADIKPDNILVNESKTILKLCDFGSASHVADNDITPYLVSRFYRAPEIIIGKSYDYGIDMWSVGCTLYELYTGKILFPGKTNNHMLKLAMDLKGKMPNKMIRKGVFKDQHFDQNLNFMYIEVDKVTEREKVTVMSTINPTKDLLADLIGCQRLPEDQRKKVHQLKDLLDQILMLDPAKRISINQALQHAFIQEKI", "assay": "Selectivity interaction (KinomeScan (DiscoverX)) EUB0000045b PRPF4B"}, "[7]": {"target": "T2, Uncharacterized serine/threonine-protein kinase SBK3 (Homo sapiens) (UniProt P0C264)", "T2 sequence (whole entry)": "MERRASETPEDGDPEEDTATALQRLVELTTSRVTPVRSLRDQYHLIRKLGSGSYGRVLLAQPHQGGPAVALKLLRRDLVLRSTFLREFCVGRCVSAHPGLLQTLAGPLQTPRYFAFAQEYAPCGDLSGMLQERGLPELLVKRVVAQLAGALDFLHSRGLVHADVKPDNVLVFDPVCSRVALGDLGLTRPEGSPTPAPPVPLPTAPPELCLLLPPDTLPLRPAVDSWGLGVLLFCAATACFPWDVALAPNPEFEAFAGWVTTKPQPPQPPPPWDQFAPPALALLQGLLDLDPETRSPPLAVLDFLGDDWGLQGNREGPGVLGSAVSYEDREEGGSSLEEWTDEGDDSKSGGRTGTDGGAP", "assay": "Selectivity interaction (KinomeScan (DiscoverX)) EUB0000229b SBK3", "details": "at 10 µM"}, "[8]": {"target": "Leukocyte tyrosine kinase receptor (Homo sapiens, UniProt P29376)", "sequence (P29376 whole entry)": "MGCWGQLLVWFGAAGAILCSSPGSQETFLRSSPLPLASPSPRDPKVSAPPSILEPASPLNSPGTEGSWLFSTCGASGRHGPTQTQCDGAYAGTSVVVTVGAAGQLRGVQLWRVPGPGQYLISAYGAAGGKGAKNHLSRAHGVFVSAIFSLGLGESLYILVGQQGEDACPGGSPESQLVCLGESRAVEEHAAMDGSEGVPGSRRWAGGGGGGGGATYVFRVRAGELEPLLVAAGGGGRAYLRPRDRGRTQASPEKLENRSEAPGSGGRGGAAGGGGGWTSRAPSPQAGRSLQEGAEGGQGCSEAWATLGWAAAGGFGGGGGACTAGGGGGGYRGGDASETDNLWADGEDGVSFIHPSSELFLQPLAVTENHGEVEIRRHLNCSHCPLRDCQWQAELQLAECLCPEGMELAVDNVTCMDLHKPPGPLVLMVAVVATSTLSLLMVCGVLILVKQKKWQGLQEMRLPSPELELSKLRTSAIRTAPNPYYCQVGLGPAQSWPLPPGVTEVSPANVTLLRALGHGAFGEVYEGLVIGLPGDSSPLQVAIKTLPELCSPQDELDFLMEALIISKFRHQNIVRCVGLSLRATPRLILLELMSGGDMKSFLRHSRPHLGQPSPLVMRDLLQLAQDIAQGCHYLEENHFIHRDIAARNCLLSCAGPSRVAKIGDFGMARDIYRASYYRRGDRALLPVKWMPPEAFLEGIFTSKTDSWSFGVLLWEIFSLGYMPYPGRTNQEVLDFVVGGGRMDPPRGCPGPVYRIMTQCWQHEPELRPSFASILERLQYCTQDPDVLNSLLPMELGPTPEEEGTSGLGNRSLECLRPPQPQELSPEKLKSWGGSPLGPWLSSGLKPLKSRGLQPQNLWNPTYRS", "details": "at 10 µM"}, "[9]": {"target": "T3, Atypical kinase COQ8B, mitochondrial (Homo sapiens) (UniProt Q96D53)", "T3 sequence (whole entry)": "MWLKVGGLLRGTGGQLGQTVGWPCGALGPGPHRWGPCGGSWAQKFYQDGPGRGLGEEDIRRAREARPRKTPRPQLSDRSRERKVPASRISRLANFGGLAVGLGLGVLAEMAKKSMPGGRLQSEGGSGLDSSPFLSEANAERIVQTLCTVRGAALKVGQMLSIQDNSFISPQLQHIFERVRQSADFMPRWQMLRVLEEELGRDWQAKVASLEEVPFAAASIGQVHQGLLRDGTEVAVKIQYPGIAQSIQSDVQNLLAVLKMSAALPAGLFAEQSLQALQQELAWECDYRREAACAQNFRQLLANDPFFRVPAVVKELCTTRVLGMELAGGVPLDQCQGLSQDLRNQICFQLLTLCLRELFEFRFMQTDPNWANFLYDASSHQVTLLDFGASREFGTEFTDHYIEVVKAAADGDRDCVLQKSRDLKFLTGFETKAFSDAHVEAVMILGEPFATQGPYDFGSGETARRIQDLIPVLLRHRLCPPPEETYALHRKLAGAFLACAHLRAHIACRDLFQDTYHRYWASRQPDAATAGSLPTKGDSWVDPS", "details": "at 10 µM"}, "[10]": {"target": "T4, Serine/threonine-protein kinase 3 (Homo sapiens) (UniProt Q13188)", "T4 sequence (whole entry)": "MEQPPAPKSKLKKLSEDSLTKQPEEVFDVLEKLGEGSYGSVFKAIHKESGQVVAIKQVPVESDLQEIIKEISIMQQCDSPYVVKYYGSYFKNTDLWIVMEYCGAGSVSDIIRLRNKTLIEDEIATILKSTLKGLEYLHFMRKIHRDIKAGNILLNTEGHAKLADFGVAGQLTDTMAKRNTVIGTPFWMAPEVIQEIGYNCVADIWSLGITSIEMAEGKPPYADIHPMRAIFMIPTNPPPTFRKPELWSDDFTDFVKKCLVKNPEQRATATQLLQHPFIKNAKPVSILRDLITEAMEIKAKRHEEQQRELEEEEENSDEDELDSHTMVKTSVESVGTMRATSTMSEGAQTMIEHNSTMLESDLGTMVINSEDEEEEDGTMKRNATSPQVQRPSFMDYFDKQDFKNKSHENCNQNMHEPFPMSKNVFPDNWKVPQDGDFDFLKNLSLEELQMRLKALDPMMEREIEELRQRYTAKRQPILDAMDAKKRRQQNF", "details": "at 10 µM"}}}
{"smiles": "CC(=O)c1cc(-c2ccccc2OCC2CC2)c2ncccn12", "values": [{"measurement": "% of control", "setting": "[1]", "result": 46, "unit": "%"}, {"measurement": "% of control", "setting": "[2]", "result": 105, "unit": "%"}]}
{"smiles": "O=C(NOC[C@H](O)CO)c1ccc(F)c(F)c1Nc1ccc(I)cc1F", "values": [{"measurement": "% of control", "setting": "[3]", "result": 61, "unit": "%"}]}
{"smiles": "CCN(CC)CCCCNc1ncc2cc(-c3cc(OC)cc(OC)c3)c(NC(=O)NC(C)(C)C)nc2n1", "values": [{"measurement": "% of control", "setting": "[4]", "result": 100, "unit": "%"}]}
{"smiles": "CN(C)CCOc1ccc(-c2nc(-c3ccncc3)c(-c3ccc4c(c3)CC/C4=N\\O)[nH]2)cc1", "values": [{"measurement": "% of control", "setting": "[5]", "result": 94, "unit": "%"}]}
{"smiles": "C=CC(=O)Nc1cc(-n2c(=O)ccc3cnc4ccc(-c5ccc(NS(C)(=O)=O)cc5)cc4c32)ccc1C", "values": [{"measurement": "% of control", "setting": "[6]; at 1 µM", "result": 95, "unit": "%"}, {"measurement": "% of control", "setting": "[6]; at 10 µM", "result": 89, "unit": "%"}]}
{"smiles": "COc1cc(N(C)c2ccnc3ccc(C(F)(F)F)cc23)cc(OC)c1OC", "values": [{"measurement": "% binding", "setting": "[7]", "result": 100, "unit": "%"}]}
{"smiles": "Cc1cc([C@@H](C)Nc2ccccc2C(=O)O)c2nc(N3CCOCC3)cc(=O)n2c1", "note": "[AZD-6482]", "values": [{"measurement": "% of control", "setting": "[8]", "result": 95, "unit": "%"}, {"measurement": "% of control", "setting": "[9]", "result": 79, "unit": "%"}, {"measurement": "% of control", "setting": "[10]", "result": 66, "unit": "%"}]}
